Test results taken from US20190187129A1, “CANCER MODELING PLATFORMS AND METHODS OF USING THE SAME” (Wake Forest University Health Sciences, priority 2016, published 2019).
“Also recorded” adds a separate entry of the source.

Columns and labels:
Type in all cases: cell-based
SW480 cells = experiment: 2D drug screen, MTS assay; conditions: Homo sapiens, read-out: relative cellular viability (MTS, relative to control)
Protocol: (§1) Cancer cells seeded directly into wells were given 4-5 hours to reattach to the bottom of the wells. After that time, the anticancer drug solutions were administered in place of the media (FIG. 6, panel A) and an MTS assay was carried out 2 days later to determine cell viability. […] At 100 μM concentrations of Regorafenib and Sorafenib, and 100 mM concentrations of 5-FU, cellular viability remained below 20% that of the control for all four of the colorectal cancer cell lines utilized. However, screening with Dabrafenib and Trametinib produced diverging results from the other three anticancer drugs at higher concentrations. […] When treated with 1 mM concentrations of 5-FU, relative cellular viability was approximately 39% for SW480 cells and remained between 10%-22% for the HCT116, HT29, and CACO2 cells. These values were considerably lower than the relative cellular viability values for the lowest concentrations of the other anticancer drugs.
(§2) Cell Seeding: The original 15 mL centrifuge tubes containing the 10 mL of DMEM-10, cells, and trypsin were placed into a centrifuge. The centrifugation setting was 1500 RPM and at maximal acceleration for 5 minutes. After that time, the media and trypsin mixture was aspirated from the tubes, leaving the cell pellets still intact. 5 mL of DMEM-10 was then pipetted into each of the tubes, resuspending the cells in the process. Calculated volumes of the 5 mL cell-media solution were determined to ensure that 25,000 cells of each of the four colorectal cancer cell lines were seeded directly into each of the wells of a polystyrene clear-bottom 96-well plate. 100 μL of DMEM-10 media was then pipetted directly into the wells. The 96-well plates were incubated at 37° C. and 5% CO2 for 5 hours to allow the cells to reattach themselves to the bottom of the wells until media was aspirated and anticancer drug solutions were added.
(§3) Addition of Anticancer Drugs for Screening: The anticolorectal cancer drugs used in this screening included 5-FU, Regorafenib, Sorafenib, Trametinib, and Dabrafenib (Sigma-Aldrich, Missouri, USA)). High concentration drug stock solutions were created with DMSO. Lower concentration drug solutions were created by mixing the anticancer drug stocks with DMEM-10 media. […] drug solutions were generated for 5-FU; 1 μM, 10 μM, and 100 μM drug solutions were generated for Regorafenib, Sorafenib, and Dabrafenib; and 1 nM, 10 nM, and 100 nM drug solutions were generated for Trametinib. Media was carefully aspirated from the wells and 200 μL of the various drug-media solutions were placed into the wells containing cells. Three duplicates were generated for each anticancer drug concentration with each of the different cell types to calculate averages and run statistics on the data generated. Well plates were then incubated at 37° C. and 5% CO2 for […].
(§4) Cell viability assay: Cell viability was determined 48 hours after exposure to the anticancer drug solutions. The viability of the cells was examined by the CellTiter 96® AQueous One Solution Cell Proliferation (MTS) assay (Promega, Wisconsin, USA). The anticancer drug-media solutions were aspirated from the wells and 200 μL of the MTS reagent was carefully pipetted into the wells. The incubation time for the cells with the MTS reagent was approximately 45 minutes. The cell viability assay was performed on another 96-well plate and the absorbance was quantified by the EnVision Multilabel Plate Reader (PerkinElmer, California, USA).

[1] = test system: HCT116-CACO2 ringed constructs; experiment: Ringed organoid drug screening, live-dead stain; conditions: for % dead: % live ratio: drug day 5, stain day 7; for cell type targeted in ringed construct (live-dead images): inner HCT116 versus outer CACO2, day 7
Protocol: Polydimethylsiloxane, or PDMS, was again used to coat the bottom of the wells. HCT116 cells were embedded within hyaluronan hydrogel and constructs were created on the PDMS surface. CACO2 cells that were also embedded within hyaluronan gel were used to create the outer ring around the HCT116 inner-ring construct (FIG. 9, panel A).
A live-dead stain was carried out on the ringed-constructs on day 7 and imaged on an Axiovert microscope (FIG. 9, panel B). The imaging software, MATLAB, was used to generate a % dead: % live ratio (or % red (medium grey in black and white images): % green (light grey in black and white images)) for the ringed-constructs. The values were then graphed showing the ratios for each of the concentrations of Regorafenib and 5-FU and against the control, untreated ratio (FIG. 9, panel C). At 100 μM, Regorafenib and 5-FU both have % dead: % live ratios of 0.98. This means that approximately half of the HCT116 and CACO2 cells are alive and half have been targeted by the anticancer drugs. When analyzing the relative cellular viability when the 1 μM and 10 μM concentrations of Regorafenib and 5-FU were administered, the % dead: % live ratios are much greater for the 5-FU solutions than for the Regorafenib solutions. At 1 μM, the % dead: % live ratio is 0.95 for 5-FU as opposed to 0.48 for Regorafenib, and at 10 μM, the % dead: % live ratio is 0.78 for 5-FU as opposed to 0.08 for Regorafenib. The % dead: % live ratios for the three concentrations of Regorafenib and 5-FU were substantially higher than the control % dead: % live ratio value of only 0.03.
Hydrogel Components of the Ringed Organoid Constructs: The hyaluronic acid-based hydrogel used in making the ringed organoids was a mixture of four components: Heprasil, Gelin-S, and PEGDA 2-ARM Acrylate crosslinker (Extralink), and Alkyne-PEG-Alkyne 2-ARM crosslinker (ESI BIO, California, USA). These components were mixed in a 4:4:1:1 ratio by volume. 0.1% Irgacure photoinitiator was added to each of the four components prior to their mixture and the […] were placed in a 37° C. incubator for a ˜30 minutes to solubilize. HCT116 and CACO2 cells were isolated in the passaging method previously mentioned and PDMS was used to coat the bottom of the 96-well plates.
Forming Ringed-Organoid Constructs: The four components of the hydrogel were added to the 15 mL centrifuge tube containing the HCT116 cell pellet and the cells were resuspended within the mixture. 10 μL of the HCT116 containing hydrogel were placed in the center of the wells and left untouched with aluminum foil covering the 96-well plates for ˜35 minutes. During this time, the PEGDA 2-ARM Acrylate will crosslink the gel, while the UV-sensitive 2-ARM Alkyne-PEG-Alkyne will remain uncrosslinked.
While waiting for the PEGDA to crosslink, add the four hydrogel components to the 15 mL centrifuge tube containing the isolated CACO2 cells and resuspend the cells within the gel. Remove the aluminum foil wrapping on the 96-well plate and inspect the construct to see if they have solidified yet. If so, take 25 μL of the CACO2-embedded-hydrogel and carefully place in the area around the HCT116 construct. Use the pipette tip to physically move the CACO2 gel around the construct on all sides. Use UV light from BlueWave 200 spot light to crosslink both gels together to form a fused, ringed-construct. Add DMEM-10 media to fill up the wells.
Anticancer Drug Screening: On day 5, 1 μM, 10 μM, and 100 μM drug solutions of 5-FU were added to ringed constructs and 1 μM, 10 μM, and 100 μM drug solutions of Regorafenib were added to separate ringed constructs. Three duplicates were generated for each of the drug concentrations and a no-drug control was maintained as well.
Live-Dead Staining and Microscopy: On day 7, the ringed-constructs underwent a Live-Dead stain and the construct were imaged on an Axiovert 200M 487-1 microscope (Carl Zeiss AG, Oberkochen, Germany). […]

CACO2 cells = experiment: cells; conditions: Homo sapiens, Caco-2, read-out: relative cellular viability (MTS, relative to control)
Protocol: as §1, §2, §3, §4

Row | SMILES | viability at 1000 µM (SW480 cells; 1 mM) | viability at 100000 µM (SW480 cells; 100 mM) | % dead: % live ratio ([1]; 1 μM) | % dead: % live ratio ([1]; 10 μM) | % dead: % live ratio ([1]; 100 μM) | cell type targeted in ringed construct (live-dead images) [1] | viability at 100 µM (SW480 cells; 100 μM) | viability at 100 µM (CACO2 cells)
1 | O=c1[nH]cc(F)c(=O)[nH]1 [5-FU, 5-Fluorouracil] | ~39% | < 20% | 0.95 | 0.78 | 0.98 | targeting both cell types to similar degrees; also recorded: universal cell death of both HCT116 and CACO2 | – | –
2 | CNC(=O)c1cc(Oc2ccc(NC(=O)Nc3ccc(Cl)c(C(F)(F)F)c3)c(F)c2)ccn1 [Regorafenib] | – | – | 0.48 | 0.08 | 0.98 | inner HCT116 cells were affected by Regorafenib to a greater extent than the CACO2 cells; also recorded: targeted cell death of HCT116 | < 20% | < 20%
